The structures appear in SMILES notation.

This data set in a line: solubility in water. In kind it is physicochemical.

`CC#C[C@]1(OC(=O)CCC(=O)O)CC[C@H]2[C@@H]3CCC4=CC(=O)CCC4=C3[C@@H](c3ccc(N(C)C(C)C)cc3)C[C@@]21C` [Example 18, Sodium and 11β-[4(N-methyl-isopropylamino)-phenyl]-17α-(1-propynyl)-Δ^4,9-estradien-3-one-17β-yl succinate] displayed a solubility greater than 250 mg/mL.

As usually defined, the solubility is the dissolved amount per volume that the medium holds. Read a low solubility as a poorly soluble substance.

The values are drawn from patent US5276023A, “19-nor-steroid esters” (Roussel Uclaf, priority 1989, dated 1994).
